Results: US20250099517A1, “Use of Lactobacillus reuteri Y7 strain for prevention or treatment of ocular diseases” (Taipei Medical University, priority 2023, published 2025)

Legend:
[1] = food intakes of mice during the experiment; format: in vivo, C57BL/6 mice; conditions: for food intakes of mice: LU, lutein 6.15 mg/kg bw oral daily, blue light, Mean±S.E.M., n=6
Method: In the present invention, six-week-old male C57BL/6 mice were placed in a breeding cage in which the following feeding conditions were kept: temperature, 22±2° C., humidity, 55±5%, and the light-dark cycle of 12-hour light and 12-hour dark. The mice were fed with fodders at the adaptive phase for one week; general solid fodders for test animals were administered to mice of the control group and mice during the adaptive phase. The initial day was defined as Day 0 when the adaptive phase for the mice was over. From the next week, the mice were interfered with samples under test and exposed to blue light. During the experiments, the mice were monitored for weights as well as water intakes and checked for any physiological change. The data for experiments through electroretinography (ERG), fndus photography (FP), fundus fluorescein angiograph (FFA), spectral-domain optical coherence tomography (SD-OCT) and intraocular pressure (IOP) were collected at Day 0, Day 21 and Day 35, as shown in FIG. 1 for the experimental process. The C57BL/6 mice, which weighed between 23 and 25 g, were divided into seven groups randomly. In each group, the six mice induced by blue light successfully were incorporated in experiments. The samples dissolved in deuterium-depleted water (DDW) were fed to mice through oral tubes once a day. The groups were named and introduced as follows: • (1) Solvent not classified group (NC): The mice were fed with 0.2 ml deuterium-depleted water (DDW) through tubes; • (2) Negative control group (Blue light (BL)): The mice were fed with 0.2 ml deuterium-depleted water (DDW) through tubes and exposed to blue light; • (3) Low-dosage Y7 probiotics group […]): The mice were fed with low-dosage Y7 probiotics (probiotic counts of 1.0×10^8 CFU/ml dissolved in 0.2 ml DDW per day) and exposed to blue light; • (4) High-dosage Y7 probiotics group […]): The mice were fed with high-dosage Y7 probiotics (probiotic counts of 1.0×10^9 CFU/ml dissolved in 0.2 ml DDW per day) and exposed to blue light; • (5) Positive control group (lutein (LU)): The mice were fed with lutein and exposed to blue light. The recommended human dosage of lutein is 30 mg. The mouse cage (48×25×20 cm) placed inside a stainless ventilated box was equipped with blue light boards as blue light sources around and above. In the experiment of animals exposed to blue light, six-week-old mice staying in the mouse cage were fed with drinking water as well as fodders and exposed to 400 Lux blue light illumination under the light-dark cycle of 12-hour light and 12-hour dark. The experiment was aimed at causing mice' late dry macular disease induced by chronic light injuries for simulating a human being's macular disease after long-term exposure to short-wavelength blue light from 3C products in daily life. All data written as the form of mean±standard error of the mean (S.E.M.) were used in the statistical analysis through the one-way ANOVA and the Newman-Keuls test; p<0.05 denoted statistical difference. In the experiment, the software for the statistical analysis was Graph pad Prism (v9.2.0). The data such as food intake, water intake, body weight, organ weight and other clinical examination data were analyzed with the one-way ANOVA.

[2] = test system: photosensitivity of a retina; assay: scotopic electroretinography (ERG), blue light-induced macular disease model; format: in vivo, C57BL/6 mice
Method: The C57BL/6 mice, which weighed between 23 and 25 g, were divided into seven groups randomly. In each group, the six mice induced by blue light successfully were incorporated in experiments. The samples dissolved in deuterium-depleted water (DDW) were fed to mice through oral tubes once a day. The groups were named and introduced as follows: • (1) Solvent not classified group (NC): The mice were fed with 0.2 ml deuterium-depleted water (DDW) through tubes; • (2) Negative control group (Blue light (BL)): The mice were fed with 0.2 ml deuterium-depleted water (DDW) through tubes and exposed to blue light; • (3) Low-dosage Y7 probiotics group […]): The mice were fed with low-dosage Y7 probiotics (probiotic counts of 1.0×10^8 CFU/ml dissolved in 0.2 ml DDW per day) and exposed to blue light; • (4) High-dosage Y7 probiotics group […]): The mice were fed with high-dosage Y7 probiotics (probiotic counts of 1.0×10^9 CFU/ml dissolved in 0.2 ml DDW per day) and exposed to blue light; • (5) Positive control group (lutein (LU)): The mice were fed with lutein and exposed to blue light. The recommended human dosage of lutein is 30 mg. The mouse cage (48×25×20 cm) placed inside a stainless ventilated box was equipped with blue light boards as blue light sources around and above. In the experiment of animals exposed to blue light, six-week-old mice staying in the mouse cage were fed with drinking water as well as fodders and exposed to 400 Lux blue light illumination under the light-dark cycle of 12-hour light and 12-hour dark. The experiment was aimed at causing mice' late dry macular disease induced by chronic light injuries for simulating a human being's macular disease after long-term exposure to short-wavelength blue light from 3C products in daily life. The mydriatic agent, Atropine (0.125%), was distilled into mice' eyes for mydriasis in advance. Then, mice were anesthetized with Zoletil (40 mg/kg) and Xylazine (10 mg/kg) through intraperitoneal (IP); 2% Methocel gel as a lubricant was distilled into eyes of a deeply anesthetized mouse having placed on a clean bench. The ERG analysis was enabled with the electrodes installed completely. A mouse was stimulated with single excitation light for collection of ERG from which a negative a-wave and a positive b-wave were generated. For the ERG analysis, the excitation time was defined as the period from the initial time of excitation light emitted to the time of the a-wave (b-wave) peak detected; the amplitude of a-wave was defined as the amplitude difference between the background ERG value at the initial time of excitation light emitted and the ERG value of the a-wave peak; the amplitude of b-wave was defined as the amplitude difference between the ERG value of the a-wave peak and the ERG value of the b-wave peak. Any change observed in the excitation time or an amplitude referred to functions of retinal cells normal or abnormal. In electrophysiology, the a-wave denotes the healthy condition of photoreceptors at outside of a retina; the b-wave denotes the healthy condition of medial nerve cells of a retina such as bipolar cells and horizontal cells; the c-wave denotes the healthy condition of retinal pigment epithelium (RPE) on a retina. In the experiment, the scotopic electroretinography (ERG) was used in inspecting influence of exposure to blue light on photosensitivity of a mouse's retina. When light was received by a mouse's eyes, opsins and 11-cis-retinal on photoreceptor cells were combined with each other for a visual cycle such that a membrane potential difference was produced for transmission of ERG by the retinal neuron layer sequentially, that is, the electroretinographic physiological function test was conducted through recording peak potential differences generated by different nerve cells. […]

[3] = LU lutein group, ERG Day 35, p<0.05

Row | Compound | food intakes of mice ([1]; Day7) | food intakes of mice ([1]; Day14) | food intakes of mice ([1]; Day21) | food intakes of mice ([1]; Day28) | food intakes of mice ([1]; Day35) | amplitude of b-waves, BL group versus treated group [2, 3] | amplitude of c-waves compared with the BL group [2, 3] | food intakes compared with the BL group ([1]; mouse, in vivo) | amplitude of a-waves compared with the BL group ([2]; mouse, in vivo) | amplitude of a-waves compared with the LU group ([2]; mouse, in vivo) | amplitude of a-waves compared with the NC group ([2]; mouse, in vivo) | amplitude of b-waves, BL group versus treated group ([2]; mouse, in vivo) | amplitude of c-waves compared with the BL group ([2]; mouse, in vivo)
1 | CC1=C[C@H](O)CC(C)(C)[C@H]1/C=C/C(C)=C/C=C/C(C)=C/C=C/C=C(C)/C=C/C=C(C)/C=C/C1=C(C)C[C@@H](O)CC1(C)C [lutein, reference compound] | 5.71 ± 1.17 | 4.17 ± 1.15 | 5.04 ± 1.82 | 5.33 ± 2.17 | 4.43 ± 2.12 | BL group decreased significantly compared with the LU or Y7H group | significant difference |  |  |  |  |  | 
2 | Lactobacillus reuteri Y7 [Y7 probiotics] |  |  |  |  |  |  |  | significantly higher | increased significantly | decreased significantly | decreased significantly | BL group decreased significantly compared with the LU or Y7H group | significant difference
